Columns and labels:
Assay type in all cases: cell-based, rat
INS-1 cells = test: MTT cell viability assay, INS-1 cells treated with Tm; conditions: Tm 0.1 μg/mL, 72 h, FIG. 2B
From the text: The measurement of intracellular ATP level was use as a surrogate assay for cell viability. […] To confirm the authenticity of 13d's protective effect on β-cell viability (not simply an increase in ATP-specific measurement), we used the MTT assay, which measures the activity of NAD(P)H-dependent cellular oxidoreductase enzymes, as an orthogonal method to measure cell viability. […] To determine whether the protective effect of 13d on β-cells is specific to INS-1 cells, another β-cell line, βTC6, was used. […] In addition, compound 13d on its own had no effect on β-cell viability in both cell lines (FIG. 2C-D).
INS-1 cells or βTC6 cells were seeded at 3×10^3 cells/well in a 384-well plate and treated with compounds at the indicated concentrations. After 3 d treatment, the medium was aspirated and 10 μl of MTT reagent (Cayman Chemical, MI, USA, prepared according to manufacturer's instruction) to each well was added and mixed gently for one minute on an orbital shaker. The cells were then incubated for three hours at 37° C. in a CO2 incubator. After incubation, add 100 μl of crystal dissolving solution to each well, and incubate for 4 hours in a 37° C. CO2 incubator. Viability will be measured for the absorbance to each sample at 570 nm using EnVision multilabel plate reader (PerkinElmer, MA, USA).

cleaved PARP = test: Western blotting of cleaved PARP in Tm-treated INS-1 cells; conditions: Tm co-treatment, 24 h
Experimental: To determine whether the increase in β-cell viability following treatment with 13d is caused by a suppression of apoptotic cell death, several apoptosis-related makers were measured. First, levels of cleaved caspase-3 and cleaved PARP were assayed by Western blotting. Caspase-3, a member of executioner caspases activated by cleavage, plays essential roles in initiating apoptotic signaling and executing the final stages of cell death, whereas the nuclear enzyme poly (ADP-ribose) polymerase (PARP) plays an important role in a number of cellular processes involving DNA repair and cell death. […] However, upon severe ER stress, caspase 3 undergoes proteolytic cleavage to produce two subunits that dimerize to form the active enzyme, which in turns cleaves PARP. […] A further assessment of apoptotic INS-1 cell death was performed using TUNEL assays to detect nuclear DNA fragmentation (a consequence of cell apoptosis) in situ.
INS-1 cells were seeded in 60-mm dishes at 8×10^5 cells/dish and treated for the indicated times. Cells were then washed with PBS and lysed with lysis buffer (Cell Signaling Technology, Danvers, Mass.) containing EDTA (Thermo, Ill.) and phosphatase inhibitors (Thermo). Aliquots of 20 μg total protein were separated on 7% SDS-PAGE gels (Life Technologies) and transferred to PVDF membranes (Life Technologies). […]

XBP1s mRNA = XBP1s mRNA (qRT-PCR and RT-PCR with gel electrophoresis) in Tm-treated INS-1 cells; conditions: Tm 0.1 μg/mL co-treatment, 8 h
Experimental: INS-1 cells were treated with or without Tm (0.1 μg/mL) in the presence of 13d or DMSO for 8 h. (A) XBP1s mRNA levels were analyzed by qRT-PCR. Relative mRNA levels were normalized against the housekeeping gene Cyclophilin A using the comparative CT method. ** P<0.01 compared with Tm treatment alone. Bars indicate SD. (B) XBP1 mRNA levels were analyzed by RT-PCR and the products were resolved by agarose gel electrophoresis. The full-length (unspliced, XBP1u) and spliced (XBP1s) forms of XBP1 mRNA are indicated. Cyclophilin A mRNA was used as a loading control. Quantification was analyzed by ImageJ program shown at the bottom. The data shown are representative of 3 independent experiments.
Next, we determined the effect of 13d on the activation of IRE1α in β-cells under ER stress. […] We therefore used XBP1 splicing as a marker for the activation of the IRE1α pathway and determined the effect of 13d on IRE1α-mediated XBP1 splicing in INS-1 cells in the presence of Tm.
INS-1 cells were seeded at 4×10^5 cells/well in 6-well plates and treated with compounds for the indicated times. […] Relative mRNA levels were normalized against the housekeeping gene Cyclophilin A and were determined by ΔΔCt calculated from the difference in ΔCt values between the target gene and Cyclophilin A with and without treatment, based on comparative CT (cycle threshold) method. […]

For `O=C(NCc1ccc(C(F)(F)F)cc1)c1cccc(CN2CCCCC2)c1` [Compound 13d, N-(4-trifluoromethylphenmethyl)-3-(N-piperidinyl)methyl benzamide], the “viability of INS-1 cells under Tm treatment (MTT)” value (INS-1 cells) was “restored the viability of INS-1 cells”, the “Tm-induced cleavage of PARP” value (cleaved PARP) was “completely or significantly diminished” and the “Tm-induced increase in XBP1s mRNA level (qRT-PCR)” value (XBP1s mRNA) was “abolished”. The “Tm-induced generation of XBP1s mRNA (RT-PCR, electrophoretic separation)” value (XBP1s mRNA; FIG. 6B) was “inhibits”.
